Reference: the supplement of paper PMC10307832

Legend:
Experiment in all cases: relative viability (nuclei count vs DMSO), 5 days (fraction); higher = more cells survive
[1] = compound: C[As](C)SC[C@H](NC(=O)CC[C@H](N)C(=O)O)C(=O)NCC(=O)O [Darinaparsin] + Cc1nc(NC(=O)N2CCC[C@H]2C(N)=O)sc1-c1ccnc(C(C)(C)C(F)(F)F)c1 [Alpelisib] (partner 2 µM)
Outline: (§1)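 Dosing by pin tool came one day after lung cancer cell lines were seeded in 1536-well plates, using either one drug or a fixed anchor-drug dose plus five library-drug doses (not always all listed) in √10 steps. After 5 days, nuclei were counted on 4× images. Relative viability is treated-well nuclei count divided by vehicle-well nuclei count, and values are medians of duplicate plates.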

[2] = compound: CC1=C(C=C(C=C1)NC(=O)C2=CC(=CC=C2)C(C)(C)C#N)NC3=CC4=C(C=C3)N=CN(C4=O)C [AZ628] + CC1(C)CCC(c2ccc(Cl)cc2)=C(CN2CCN(c3ccc(C(=O)NS(=O)(=O)c4ccc(N[C@H](CCN5CCOCC5)CSc5ccccc5)c(S(=O)(=O)C(F)(F)F)c4)cc3)CC2)C1 [Navitoclax] (partner 0.5 µM)
Outline: as §1

[3] = compound: C1CC2=C(C1)C=C(C=C2)OC3=NC(=C4C(=N3)N(C=N4)CC5=CC=C(C=C5)C6=CC=CC=C6)N[C@@H](CC7=CC=CC=C7)CO [QS11] + C[C@]1(O)C[C@@H](c2nc(-c3ccc4ccc(-c5ccccc5)nc4c3)c3c(N)nccn32)C1 [Linsitinib] (partner 1 µM)
Outline: as §1

[4] = compound: C[As](C)SC[C@H](NC(=O)CC[C@H](N)C(=O)O)C(=O)NCC(=O)O [Darinaparsin] + COc1cc2c(Oc3ccc(NC(=O)C4(C(=O)Nc5ccc(F)cc5)CC4)cc3F)ccnc2cc1OCCCN1CCOCC1 [Foretinib] (partner 0.25 µM)
Outline: as §1

| Cell Line | relative viability ([1]; first compound 0.08 µM) | relative viability ([1]; first compound 0.8 µM) | relative viability ([1]; first compound 2.53 µM) | relative viability ([1]; first compound 8 µM) | relative viability ([2]; first compound 0.08 µM) | relative viability ([2]; first compound 0.253 µM) | relative viability ([2]; first compound 0.8 µM) | relative viability ([2]; first compound 2.53 µM) | relative viability ([2]; first compound 8 µM) | relative viability ([3]; first compound 0.08 µM) | relative viability ([3]; first compound 0.253 µM) | relative viability ([3]; first compound 0.8 µM) | relative viability ([3]; first compound 2.53 µM) | relative viability ([3]; first compound 8 µM) | relative viability ([4]; first compound 0.08 µM) | relative viability ([4]; first compound 0.8 µM) | relative viability ([4]; first compound 2.53 µM) | relative viability ([4]; first compound 8 µM) |
| --- | --- | --- | --- | --- | --- | --- | --- | --- | --- | --- | --- | --- | --- | --- | --- | --- | --- | --- |
| SW 1573 | 0.744 | 0.729 | 0.472 | 0.832 | 0.905 | 0.746 | 0.851 | 0.902 | 0.436 | 0.837 | 0.729 | 0.824 | 0.817 | 0.696 | 1.05 | 1.01 | 0.867 | 1.33 |
| UMC-11 | 0.861 | 0.981 | 0.683 | 1.15 | 0.311 | 0.378 | 0.334 | 0.313 | 0.418 | 1.06 | 1.16 | 1.08 | 1.17 | 1.24 | 1.16 | 1.03 | 0.974 | 1.25 |
